In ChEMBL document CHEMBL1208723, “Synthesis and activity of polyacetylene substituted 2-hydroxy acids, esters, and amides against microbes of clinical importance” (Bioorg Med Chem Lett, 2010):

How the values were obtained:
Candida albicans = experiment: Antifungal activity against Candida albicans; type: functional, organism-based
Nakaseomyces glabratus = experiment: Antifungal activity against Candida glabrata; type: functional, organism-based
Candida tropicalis = experiment: Antifungal activity against Candida tropicalis; type: functional, organism-based
Pichia kudriavzevii = experiment: Antifungal activity against Candida krusei; type: functional, organism-based
Candida parapsilosis = experiment: Antifungal activity against Candida parapsilosis; type: functional, organism-based
Staphylococcus aureus [1] = experiment: Antibacterial activity against Staphylococcus aureus ATCC 25923; type: functional; further: test concentration or dose not given here
Pseudomonas aeruginosa = experiment: Antibacterial activity against Pseudomonas aeruginosa ATCC 27853; type: functional; further: test concentration or dose not given here
Escherichia coli = experiment: Antibacterial activity against Escherichia coli ATCC 25922; type: functional; further: test concentration or dose not given here
Streptococcus pyogenes = experiment: Antibacterial activity against Streptococcus pyogenes ATCC 19615; type: functional; further: test concentration or dose not given here
Staphylococcus aureus [2] = experiment: Antibacterial activity against methicillin-resistant Staphylococcus aureus; type: functional; further: test concentration or dose not given here
[3] = Lodderomyces parapsilosis, read-out: IC50
[4] = Candida albicans, read-out: IC50
[5] = Nakaseomyces glabratus, read-out: IC50
[6] = Candida tropicalis, read-out: IC50
[7] = Pichia kudriavzevii, read-out: IC50

Row | SMILES | IC50 (Candida albicans) | IC50 (Nakaseomyces glabratus) | IC50 (Candida tropicalis) | IC50 (Pichia kudriavzevii) | IC50 (Candida parapsilosis) | inhibition (INH) (Staphylococcus aureus [1]) | inhibition (INH) (Pseudomonas aeruginosa) | inhibition (INH) (Escherichia coli) | inhibition (INH) (Streptococcus pyogenes) | inhibition (INH) (Staphylococcus aureus [2]) | IC50 (Candida parapsilosis; [3]) | IC50 (Candida albicans; [4]) | IC50 (Nakaseomyces glabratus; [5]) | IC50 (Candida tropicalis; [6]) | IC50 (Pichia kudriavzevii; [7])
1 | CCCC/C=C\C#CC#CCCCCCC(O)C(=O)NCC(C)C (stereo not drawn) | Not Active | Not Active | Not Active | Not Active | Not Active | 50% | >75% | 50% | >75% | >75% | – | – | – | – | –
2 | O=C(O)C(O)CCCCCCC#C/C=C\C#Cc1ccco1 (stereo not drawn) | Not Active | Not Active | Not Active | Not Active | – | >75% | >75% | >75% | >75% | 25% | 500 µM | – | – | – | –
3 | CCCCCC#C/C=C\C#CCCCCCC(O)C(=O)O (stereo not drawn) | Not Active | Not Active | Not Active | Not Active | Not Active | >75% | >75% | 50% | >75% | – | – | – | – | – | –
4 | CCCCC/C=C\C#CC#CCCCCC[C@@H]1O[C@](C)(OC)[C@@](C)(OC)OC1=O | Not Active | Not Active | Not Active | Not Active | Not Active | 50% | >75% | 50% | >75% | 25% | – | – | – | – | –
5 | CCCCC#CC#C/C=C/CCCCCCC(O)C(=O)OC(C)C (stereo not drawn) | Not Active | Not Active | Not Active | Not Active | Not Active | 25% | >75% | 50% | >75% | 50% | – | – | – | – | –
6 | CCCCC#CC#C/C=C/CCCCCCC(O)C(=O)NCc1ccccc1 (stereo not drawn) | Not Active | Not Active | Not Active | Not Active | Not Active | 25% | >75% | 50% | >75% | 50% | – | – | – | – | –
7 | CCCC#CC#CC#CCCCCCC(O)C(=O)O (stereo not drawn) | – | – | – | – | – | >75% | >75% | >75% | >75% | – | 125 µM | 500 µM | 500 µM | 500 µM | 500 µM
8 | CCCCCC#C/C=C\C#CC[C@@H]1O[C@](C)(OC)[C@@](C)(OC)OC1=O | Not Active | Not Active | Not Active | Not Active | Not Active | 25% | >75% | 50% | >75% | 25% | – | – | – | – | –
9 | CCCC#C/C=C\C#CCCCCC[C@@H]1O[C@](C)(OC)[C@@](C)(OC)OC1=O | Not Active | Not Active | Not Active | Not Active | Not Active | 25% | >75% | 50% | >75% | 25% | – | – | – | – | –
10 | CCCC#CC#CC#CCCCCC[C@@H]1O[C@](C)(OC)[C@@](C)(OC)OC1=O | Not Active | Not Active | Not Active | Not Active | Not Active | 50% | >75% | >75% | >75% | 25% | – | – | – | – | –
11 | CCCC#C/C=C\C#CCCCCCC(O)C(=O)OCCCc1ccccc1 (stereo not drawn) | Not Active | Not Active | Not Active | Not Active | Not Active | 25% | >75% | 50% | >75% | 25% | – | – | – | – | –
12 | CCCCCC/C=C\C#CC#CCCCCC(O)C(=O)OC (stereo not drawn) | Not Active | – | Not Active | Not Active | – | 50% | >75% | 25% | >75% | >75% | 30 µM | – | 1000 µM | – | –
13 | CCCCC#CC#C/C=C/CCCCCC[C@@H]1O[C@](C)(OC)[C@@](C)(OC)OC1=O | Not Active | Not Active | Not Active | Not Active | Not Active | 25% | >75% | 50% | >75% | 25% | – | – | – | – | –
14 | CCCCC#CC#C/C=C/CCCCCCC(O)C(=O)O (stereo not drawn) | – | – | – | – | – | 50% | >75% | – | 25% | – | 250 µM | 500 µM | 500 µM | 500 µM | 500 µM
15 | CCCCC/C=C\C#CC#CCCCCCC(O)C(=O)O (stereo not drawn) | Not Active | – | – | – | – | >75% | >75% | >75% | >75% | – | 2 µM | – | 500 µM | 1000 µM | 1000 µM
16 | CCCCCC#CC#CC#CCCCCCC(O)C(=O)O (stereo not drawn) | Not Active | – | – | – | – | >75% | >75% | >75% | 50% | – | 2 µM | – | 500 µM | 500 µM | 500 µM
17 | CCCC#C/C=C\C#CCCCCCC(O)C(=O)O (stereo not drawn) | Not Active | Not Active | Not Active | Not Active | Not Active | >75% | >75% | 50% | >75% | – | – | – | – | – | –
18 | CCCCC#C/C=C\C#CCCCCCCC(O)C(=O)O (stereo not drawn) | Not Active | Not Active | Not Active | Not Active | – | >75% | >75% | >75% | >75% | – | 500 µM | – | – | – | –
19 | CCCCCC#CC#C/C=C/CCCCCC(O)C(=O)OC (stereo not drawn) | – | – | Not Active | Not Active | Not Active | 25% | >75% | 50% | >75% | >75% | – | 1000 µM | 500 µM | – | –
20 | CCCCC#CC#C/C=C\CCCCCCC(O)C(=O)O (stereo not drawn) | Not Active | Not Active | Not Active | Not Active | Not Active | 25% | >75% | – | – | – | – | – | – | – | –
21 | CCCCCC#CC#C/C=C/CCCCCC(O)C(=O)O (stereo not drawn) | – | – | – | – | – | – | >75% | 25% | 50% | >75% | 2 µM | 500 µM | 500 µM | 500 µM | 500 µM
